Patent publication USRE47193E1, “Selectively substituted quinoline compounds” (EISAI R&D MANAGEMENT CO., LTD., priority 2013, dated 2019)
pIC50: −log10 of the molar value. Like-named read-outs stand apart in the source and are kept apart here.

Molecular target: T1, mouse TLR7 (Mus musculus, UniProt P58681)
T1 sequence (P58681 27-1050): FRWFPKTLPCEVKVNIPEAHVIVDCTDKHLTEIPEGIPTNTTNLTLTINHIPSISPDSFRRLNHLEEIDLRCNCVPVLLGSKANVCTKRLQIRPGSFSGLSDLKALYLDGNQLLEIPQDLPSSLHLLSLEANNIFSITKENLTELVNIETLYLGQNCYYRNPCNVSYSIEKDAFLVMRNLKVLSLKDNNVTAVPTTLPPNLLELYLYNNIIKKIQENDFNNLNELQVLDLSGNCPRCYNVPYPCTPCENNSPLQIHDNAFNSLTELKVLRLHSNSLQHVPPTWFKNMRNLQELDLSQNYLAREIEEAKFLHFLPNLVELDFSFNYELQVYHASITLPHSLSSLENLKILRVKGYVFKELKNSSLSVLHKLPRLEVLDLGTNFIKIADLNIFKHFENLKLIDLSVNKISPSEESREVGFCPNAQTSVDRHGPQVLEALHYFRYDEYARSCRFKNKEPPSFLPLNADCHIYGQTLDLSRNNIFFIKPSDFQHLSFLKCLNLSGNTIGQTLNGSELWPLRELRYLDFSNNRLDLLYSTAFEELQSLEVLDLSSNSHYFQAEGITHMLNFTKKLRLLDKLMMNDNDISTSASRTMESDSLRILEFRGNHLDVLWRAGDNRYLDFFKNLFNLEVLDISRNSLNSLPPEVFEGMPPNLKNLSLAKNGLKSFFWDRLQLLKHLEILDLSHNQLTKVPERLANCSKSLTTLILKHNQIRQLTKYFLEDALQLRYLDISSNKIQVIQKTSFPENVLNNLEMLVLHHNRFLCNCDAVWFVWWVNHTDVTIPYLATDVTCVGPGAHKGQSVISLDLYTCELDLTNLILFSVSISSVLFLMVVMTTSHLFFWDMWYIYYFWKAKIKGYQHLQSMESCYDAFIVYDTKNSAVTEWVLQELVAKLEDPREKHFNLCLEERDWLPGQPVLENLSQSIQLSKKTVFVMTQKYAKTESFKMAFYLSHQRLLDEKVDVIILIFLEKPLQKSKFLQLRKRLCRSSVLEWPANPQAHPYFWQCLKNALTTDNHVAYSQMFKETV
Assay: HEK-293 mouse TLR7 NF-kappaB luciferase reporter assay (CL097)
Type: cell-based
Details: HEK-mTLR7, average of three tests
Method: Effects on mouse TLR7 were also compared. Cells were stimulated overnight with TLR7/8 agonist CL097 at pre-determined ED70-80: 3 ug/ml for HEK-hTLR7, 1.5 ug/ml for HEK-mTLR7 and 12 ug/ml for HEK-hTLR8, before reading luminescence intensity. Three tests were performed and IC50 value was determined using Graphpad Prism 6 nonlinear regression curve fit.
HEK-293 cells (ATCC) were engineered to stably express a NF-kappaB transcription factor inducible E-selectin (ELAM-1) luciferase reporter derived from the plasmid pGL3 (Promega) containing base pairs −2241 bp to −254 bp from the promoter of the human E-selectin gene (Accession No. NM_000450). These cells were then subsequently engineered to stably and individually express human TLR4, TLR7 or TLR9 full-length ORF cDNAs. Human TLR4 cDNA (Accession No. NM_138554) was cloned into pcDNA 3.0 expression vector (Invitrogen). TLR4 transfected cells were also engineered to express human MD-2 co-receptor [MD-2 cDNA (Accession No. NM_015364) was cloned into the pEF-BOS vector] and were supplemented with 10 nM soluble CD14 (R&D Systems) in the media to optimize LPS responsiveness. Human TLR9 cDNA (Accession No. NM_017442) was cloned into the pBluescript II KS vector (Agilent). Human TLR7 cDNA (Accession No. NM_016562) was obtained from OriGene. […]

CCN(CCO)CCCC(C)Nc1ccnc2cc(Cl)ccc12 (centres unmarked) [HCQ, hydroxychloroquine, reference compound]
pIC50 (read-out: IC50 average): 4.85

C[C@@H]1CN(c2ccc(C#N)c3ncccc23)C[C@H](C(=O)N[C@H]2CNC[C@H]2F)O1.Cl [ER-899742, (2R,6R)-4-(8-cyanoquinolin-5-yl)-N-[(3S,4R)-4-fluoropyrrolidin-3-yl]-6-methylmorpholine-2-carboxamide hydrochloride]
pIC50 (IC50 average): 7.15
